Test results from PubChem BioAssay (NCI).
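Exposure lasted 48 hours, with cells grown in 96-well plates and compounds tested at five concentrations. Here, GI50 denotes the concentration required for 50% inhibition of growth. TGI marks complete inhibition of growth.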

Columns and labels:
Experiment in all cases: inhibition of tumour cell growth, NCI panel, 48 h
[1] = tested on: U251 CNS
[2] = tested on: SNB-75 CNS
[3] = tested on: RPMI-8226 leukemia
[4] = tested on: COLO 205 colon
[5] = tested on: SR leukemia
[6] = tested on: NCI-H460 lung
[7] = tested on: SK-MEL-5 melanoma
[8] = tested on: OVCAR-5 ovarian
[9] = tested on: TK-10 renal
[10] = tested on: 786-0 renal
[11] = tested on: BT-549 breast
[12] = tested on: SK-OV-3 ovarian
[13] = tested on: A498 renal
[14] = tested on: MDA-MB-468 breast
[15] = tested on: NCI-H522 lung
[16] = tested on: T-47D breast
[17] = tested on: ACHN renal
[18] = tested on: HCT-15 colon
[19] = tested on: KM12 colon
[20] = tested on: NCI-H226 lung
[21] = tested on: MCF7 breast
[22] = tested on: SF-295 CNS
[23] = tested on: RXF 393 renal
[24] = tested on: OVCAR-3 ovarian
[25] = tested on: HT29 colon
[26] = tested on: CAKI-1 renal
[27] = tested on: MOLT-4 leukemia
[28] = tested on: HS 578T breast
[29] = tested on: HCC-2998 colon

CC1=C(C(=O)Nc2ccccc2)C(c2cccc3ccccc23)n2c(nc3ccccc32)N1 (stereo not drawn)
GI50 [1]: 11.1 µM | TGI [1]: > 100 µM | GI50 [2]: 1.76 µM | TGI [2]: 5.95 µM | GI50 [3]: > 100 µM | TGI [3]: > 100 µM | GI50 [4]: > 100 µM | TGI [4]: > 100 µM | GI50 [5]: > 100 µM | TGI [5]: > 100 µM | GI50 [6]: > 100 µM | TGI [6]: > 100 µM | GI50 [7]: > 100 µM | TGI [7]: > 100 µM | GI50 [8]: > 100 µM | TGI [8]: > 100 µM | GI50 [9]: > 100 µM | TGI [9]: > 100 µM | GI50 [10]: 25.1 µM | TGI [10]: > 100 µM | GI50 [11]: 13.1 µM | TGI [11]: > 100 µM | GI50 [12]: > 100 µM | TGI [12]: > 100 µM | GI50 [13]: > 100 µM | TGI [13]: > 100 µM | GI50 [14]: 26.6 µM | TGI [14]: > 100 µM | GI50 [15]: > 100 µM | TGI [15]: > 100 µM | GI50 [16]: > 100 µM | TGI [16]: > 100 µM | GI50 [17]: 19.3 µM | TGI [17]: > 100 µM | GI50 [18]: > 100 µM | TGI [18]: > 100 µM | GI50 [19]: > 100 µM | TGI [19]: > 100 µM | GI50 [20]: 16.4 µM | TGI [20]: 96.1 µM | GI50 [21]: > 100 µM | TGI [21]: > 100 µM | GI50 [22]: 60.4 µM | TGI [22]: > 100 µM | GI50 [23]: 15.4 µM | TGI [23]: 95.1 µM | GI50 [24]: > 100 µM | TGI [24]: > 100 µM | GI50 [25]: > 100 µM | TGI [25]: > 100 µM | GI50 [26]: > 100 µM | TGI [26]: > 100 µM | GI50 [27]: > 100 µM | TGI [27]: > 100 µM | GI50 [28]: 2.9 µM | TGI [28]: 20.1 µM | GI50 [29]: > 100 µM | TGI [29]: > 100 µM
